{"source": "PubChem BioAssay AID652219", "about": "(Broad Institute, 2013)", "note": "Calls of active or inactive are those of the source. No rule for the calls is given here.", "data": [{"system": "V. cholerae SLS353 luxOD47E qrr4-GFP fluorescence", "test": "Quorum LuxO inhibitors, V. cholerae SLS353 luxOD47E qrr4 GFP fluorescence, confirmatory dose response (AID 652219)", "values": [{"smiles": "COc1ccccc1NC(=O)COC(=O)c1cc2c(s1)CCC2", "AC50": "> 500 µM (inactive)"}, {"smiles": "O=C(Cc1ccc(-c2ccccc2)cc1)NC1CCCC1", "AC50": "> 500 µM (inactive)"}, {"smiles": "CCCn1nnnc1NCc1ccc(N2CCCC2)cc1", "AC50": "> 500 µM (inactive)"}, {"smiles": "CCC(C)NC(=O)Cc1ccc(-c2ccccc2)cc1", "note": "(stereo not given)", "AC50": "> 500 µM (inactive)"}, {"smiles": "O=C(Nc1nnc(-c2ccc3c(c2)OCCO3)o1)C1CCCCC1", "AC50": "2 µM"}, {"smiles": "Cc1ccc2cc3c(NC(=O)c4ccco4)nn(C)c3nc2c1", "AC50": "4 µM"}, {"smiles": "CCn1nnnc1NCc1ccc(N2CCCC2)cc1", "AC50": "> 500 µM (inactive)"}, {"smiles": "CCCn1nnnc1NCc1ccc(N(CC)CC)cc1", "AC50": "> 500 µM (inactive)"}, {"smiles": "CCCn1nnnc1NCc1ccc(C(C)C)cc1", "AC50": "> 500 µM (inactive)"}, {"smiles": "COc1ccccc1NC(=O)COC(=O)c1ccc(C)cc1", "AC50": "> 500 µM (inactive)"}, {"smiles": "COc1ccc(Cl)cc1NC(=O)COC(=O)c1ccc(C)o1", "AC50": "> 500 µM (inactive)"}, {"smiles": "CCOc1ccc(Nc2ccc3nonc3c2[N+](=O)[O-])cc1", "AC50": "> 500 µM (inactive)"}, {"smiles": "COc1ccccc1NC(=O)COC(=O)c1oc2ccccc2c1C", "AC50": "> 500 µM (inactive)"}, {"smiles": "Cc1ccc(OCCNC(=O)c2cccc(C)c2)cc1", "AC50": "100 µM (inactive)"}, {"smiles": "O=c1ncn(-c2cccc(Cl)c2)c2ccccc12", "AC50": "250 µM"}]}]}
